# According to paper PMC4904373, “Azole Antifungal Sensitivity of Sterol 14α-Demethylase (CYP51) and CYP5218 from Malassezia globosa” (Scientific Reports, 2016):
# “And” between values parts separate entries of the source, which are not always exact repeats. Identical values can stand only once. Like-named read-outs stand apart in the source and are kept apart here.
# Tests used:
# [1] = test system: C=C(CC[C@@H](C)[C@H]1CC[C@@]2(C)C3=C(CC[C@]12C)[C@@]1(C)CC[C@H](O)C(C)(C)[C@@H]1CC3)C(C)C; assay: purified protein, by the assay type; conditions: other: 0.13 μM CYP51, 0.5 μM AfCPR1, 5 min at 37 °C, substrate inhibition equation
# Description: (§3) Assay mixtures were incubated at 37 °C for 10 minutes prior to initiation with 4 mM β-NADPHNa4 followed by shaking at 37 °C for 20 minutes. Sterol metabolites were recovered by extraction with ethyl acetate followed by derivatization with 0.1 ml N,O-bis(trimethylsilyl)trifluoroacetamide (BSTFA) : trimethylchlorosilane (TMCS) (99:1) and 0.3 ml anhydrous pyridine (2 h at 80 °C) prior to analysis by gas chromatography mass spectrometry (GC/MS)[53].
# [2] = test system: C=C(CC[C@@H](C)[C@H]1CC[C@@]2(C)C3=C(CC[C@]12C)[C@@]1(C)CC[C@H](O)[C@@H](C)[C@@H]1CC3)C(C)C; assay: purified protein, by the assay type; conditions: other: 0.13 μM CYP51, 0.5 μM AfCPR1, 5 min at 37 °C, substrate inhibition equation
# Description: as §3
# M. globosa ATCC MYA-4612 = assay: M. globosa MIC100 determination; format: cell-based, Malassezia globosa; conditions: Malassezia globosa, 168 h; modified Dixon medium, 30 °C, 7 days; read-out: MIC100
# Description: M. globosa ATCC MYA-4612 was grown for 7 days at 30 °C in modified Dixon medium (3.6% malt extract, 2% desiccated ox-bile, 1% Tween 40, 0.6% peptone, 0.2% glycerol, 0.2% oleic acid, pH adjusted to 6 with HCl) until a culture density of 1.5 × 10^5 cells ml^−1 was obtained. Cells from 3 ml of stock culture were harvested, suspended in 1 ml of saline and used to inoculate 30 ml of fresh modified Dixon medium for use as M. globosa inoculums in MIC determinations. Stock azole concentrations of 1600, 800, 400, 200, 100, 50, 25, 12.5, 6.25, 3.125 and 0 μg ml^−1 were prepared in DMSO. These were diluted ten-fold with fresh modified Dixon media and 20 μl of the diluted azole solutions were then mixed with 180 μl of M. globosa inoculum in microtiter plate wells to yield final azole concentrations of 16, 8, 4, 2, 1, 0.5, 0.25, 0.125, 0.0625, 0.03125 and 0 μg ml^−1. The microtiter plates were incubated at 30 °C for 7 days and then read. Each azole MIC100 determination was performed in triplicate.
# M. globosa CYP51 [3] = molecular target: T1, M. globosa CYP51 (Malassezia globosa, UniProt A8Q3I7, A7V/E4L/G6A/I5L/L2A/Q3L/W8F); assay: biochemical; format: binding
# T1 sequence (A8Q3I7 whole entry L2A/Q3L/E4L/I5L/G6A/A7V/W8F): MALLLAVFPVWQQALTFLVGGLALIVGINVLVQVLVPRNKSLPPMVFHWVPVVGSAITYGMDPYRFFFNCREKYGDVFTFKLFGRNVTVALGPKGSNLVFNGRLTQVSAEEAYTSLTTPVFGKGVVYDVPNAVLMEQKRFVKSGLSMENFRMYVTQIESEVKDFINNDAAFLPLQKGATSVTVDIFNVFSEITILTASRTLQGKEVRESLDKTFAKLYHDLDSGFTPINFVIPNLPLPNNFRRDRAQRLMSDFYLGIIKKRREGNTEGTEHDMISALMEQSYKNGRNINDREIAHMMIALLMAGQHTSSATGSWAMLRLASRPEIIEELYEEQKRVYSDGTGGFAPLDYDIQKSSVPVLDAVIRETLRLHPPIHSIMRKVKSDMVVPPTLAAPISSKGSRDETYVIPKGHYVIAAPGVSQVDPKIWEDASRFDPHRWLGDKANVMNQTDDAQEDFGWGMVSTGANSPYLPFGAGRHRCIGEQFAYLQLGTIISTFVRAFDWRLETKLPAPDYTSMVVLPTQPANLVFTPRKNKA
# Description: (§1) Reduced carbon monoxide difference spectroscopy[46][47] and absolute spectra between 700 and 300 nm were used to determine cytochrome P450 concentrations. Substrate and azole binding studies were performed[31][48] using 2.5 mM stock sterol solutions in 40% (wt/vol) (2-hydroxypropyl)-β-cyclodextrin (HPCD), 4 mg ml^−1 solutions of fatty acids in dimethylformamide (DMF), and stock 0.05, 0.1 and 0.2 mg ml^−1 solutions of azole antifungal agents in dimethylsulfoxide (DMSO). Sterols were titrated against 5 μM CYP51, fatty acids were titrated against 4 μM CYP5218 and azole antifungal agents were titrated against 2 μM CYP51 and CYP5218. The absorbance difference spectrum between 500 and 350 nm was determined after each incremental addition of ligand with saturation curves constructed from ΔApeak-trough against ligand concentration. The dissociation constants (Kd) for sterols and fatty acids were determined by non-linear regression (Levenberg-Marquardt algorithm) using the Michaelis-Menten equation. The dissociation constants of the enzyme-azole complex were determined by non-linear regression (Levenberg-Marquardt algorithm) using a rearrangement of the Morrison equation for tight ligand binding. ProFit 6.1.12 (QuantumSoft, Zurich, Switzerland) was used for curve-fitting data. All ligand-binding studies were performed at 22 ± 2 °C and in triplicate. All spectral determinations were made using a Hitachi U-3310 UV/VIS spectrophotometer (San Jose, California).
# M. globosa CYP5218 [4] = molecular target: T2, M. globosa CYP5218 (Malassezia globosa, UniProt A8QCD3, A3L/A5L/F6A/I7V/S4L/S8F); assay: biochemical; format: binding; conditions: for azole binding to CYP5218 (binding spectra): 2 μM CYP5218, result in words; for Kd: azole titrated against 2 μM CYP5218
# Description: as §1
# M. globosa CYP5218 [5] = molecular target: T2, M. globosa CYP5218; conditions: 100 μM fatty acid, 1 hour to overnight (~16 h), three different cytochrome P450 reductase redox partners
# Description: The CYP5218 fatty acid reconstitution assay system used was based on that previously described by Guengerich[54] and contained 200 nM of CYP5218, 500 nM of cytochrome P450 reductase (A. fumigatus CPR1[52]) or H. sapiens CPR[55] or C. albicans CPR[56], 50 μM DLPC, 100 μM fatty acid (lauric acid, myristic acid, palmitic acid, palmitoleic acid, oleic acid and linoleic acid), 4 mM glucose-6-phosphate, 3 U/ml yeast glucose-6-phosphate dehydrogenase in a final volume of 500 μl with 0.1 M potassium phosphate (pH 7.4). Assay mixtures were incubated at 37 °C for 5 min prior to initiation with 4 mM β-NADPHNa4 and then incubated for a further 60 min or overnight (~16 h) at 37 °C. Fatty acid metabolites were recovered by extraction with dichloromethane and dried in a vacuum centrifuge. Samples were derivatized with 200 μl anhydrous pyridine and 250 μl BSTFA:TMCS (99:1) (30 min at 80 °C) and extracted with 500 μl of hexane, prior to analysis by GC/MS (Thermo GC Trace 1300 and ISQ MS). GC analysis was performed with a 5% phenyl methylpolysiloxane column (DB5) (Agilent Technologies). The oven programme was as follows: initial: 70 °C, with 3 min hold; ramp: 10 °C min^−1 to 180 °C (held for 2 min), 10 °C min^−1 to 250 °C (held for 2 min) and 10 °C min^−1 to 280 °C (held for 2 min). Data were analyzed using Thermo Xcalibur 2.2 software.
# M. globosa CYP5218 [6] = molecular target: T2, M. globosa CYP5218; assay: biochemical; format: binding; conditions: for Kd / CYP5218 Kd (μM) Eadie-Hofstee / CYP5218 Kd (μM) Michaelis-Menten: 4 μM CYP5218, type I spectra, mean of three replicates with SD; for binding spectra with CYP5218: result in words
# Description: as §1, with “The dissociation constants (Kd) for sterols and fatty acids were determined by non-linear regression (Levenberg-Marquardt algorithm) using the Michaelis-Menten equation.” left out
# M. globosa CYP51 [7] = molecular target: T1, M. globosa CYP51; conditions: 0.5 μM CYP51, 50 μM sterol substrate
# Description: (§2) Sterol metabolites were recovered by extraction with ethyl acetate followed by derivatization with 0.1 ml N,O-bis(trimethylsilyl)trifluoroacetamide (BSTFA) : trimethylchlorosilane (TMCS) (99:1) and 0.3 ml anhydrous pyridine (2 h at 80 °C) prior to analysis by gas chromatography mass spectrometry (GC/MS)[53].
# M. globosa [8] = conditions: cited from earlier work
# Candida maltosa CYP52A4 = test system: Candida maltosa CYP52A4; set-up: method as in PMID 8645001; conditions: cited from earlier work
# M. globosa [9] = assay: Sterol analysis of azole-treated M. globosa; format: cell-based, Malassezia globosa; conditions: 0.125 μg ml^−1 ketoconazole
# Description: Individual sterols were identified by reference to relative retention times, mass ions and fragmentation patterns. Sterol composition was calculated using peak areas.
# M. globosa CYP51 [10] = molecular target: T1, M. globosa CYP51; assay: biochemical; conditions: IC50, 0.5 μM CYP51, CYP51:AfCPR1 1:2, 50 μM lanosterol as substrate
# Description: as §2
# [11] = CYP5218 Kd (μM) Michaelis-Menten
molecule,measurement,setting,value
M. globosa CYP51 (Malassezia globosa CBS 7966; A7V/E4L/G6A/I5L/L2A/Q3L/W8F),Km,[1],55.91 ± 19.79 µM
same,kcat,[1],1.092 ± 0.2675 s⁻¹
same,Km,[2],42.09 ± 10.45 µM
same,kcat,[2],0.8948 ± 0.2368 s⁻¹
Clc1ccccc1C(c1ccccc1)(c1ccccc1)n1ccnc1 [clotrimazole],MIC,M. globosa ATCC MYA-4612,8 µg/mL
same,Kd,M. globosa CYP51 [3],0.004 ± 0.002 µM
same,azole binding to CYP5218 (binding spectra),M. globosa CYP5218 [4],type II binding spectra
same,Kd,M. globosa CYP5218 [4],~0.5 µM and 0.486 µM
"CCCCCCCCCCCCCCCC(=O)O [Palmitic acid, palmitic acid]",product formation in CYP5218 reconstitution assay,M. globosa CYP5218 [5],no observed product formation
same,Kd,M. globosa CYP5218 [6]; CYP5218 Kd (μM) Eadie-Hofstee,253 ± 77 µM
same,Kd,M. globosa CYP5218 [6]; [11],1020 ± 755 µM
CC(C)=CCC[C@@H](C)[C@H]1CC[C@@]2(C)C3=C(CC[C@]12C)[C@@]1(C)CC[C@H](O)C(C)(C)[C@@H]1CC3 [lanosterol],turnover number,M. globosa CYP51 [7],1.7 min⁻¹
same,binding spectra with CYP5218,M. globosa CYP5218 [6],failed to give reproducible binding spectra
same,Kd,M. globosa CYP51 [3],32 µM
"CCCCCCCCCC(=O)O [Capric acid, capric acid]",CYP5218 Kd (μM) Eadie-Hofstee,M. globosa CYP5218 [6],no binding
same,CYP5218 Kd (μM) Michaelis-Menten,M. globosa CYP5218 [6],no binding
same,binding spectra with CYP5218,M. globosa CYP5218 [6],No binding spectra
CC[C@@H]([C@H](C)O)n1ncn(-c2ccc(N3CCN(c4ccc(OC[C@@H]5CO[C@@](Cn6cncn6)(c6ccc(F)cc6F)C5)cc4)CC3)cc2)c1=O [posaconazole],MIC values previously reported,M. globosa [8],0.06 µg/mL
"CCCCCCCCCCCC(=O)O [Lauric acid, lauric acid]",Kd,Candida maltosa CYP52A4,~110 µM
same,product formation in CYP5218 reconstitution assay,M. globosa CYP5218 [5],no observed product formation
same,Kd,M. globosa CYP5218 [6]; CYP5218 Kd (μM) Eadie-Hofstee,136 ± 3 µM
same,Kd,M. globosa CYP5218 [6]; [11],136 ± 4 µM
"CC/C=C\CCCCCCCC(=O)O [Lauroleic acid, lauroleic acid]",CYP5218 Kd (μM) Michaelis-Menten,M. globosa CYP5218 [6],poor fit
same,Kd,M. globosa CYP5218 [6]; read-out: CYP5218 Kd (μM) Eadie-Hofstee,148 ± 20 µM
"CCCCCC/C=C\CCCCCCCC(=O)O [Palmitoleic acid, palmitoleic acid]",product formation in CYP5218 reconstitution assay,M. globosa CYP5218 [5],no observed product formation
same,Kd,M. globosa CYP5218 [6]; CYP5218 Kd (μM) Eadie-Hofstee,114 ± 5 µM
same,Kd,M. globosa CYP5218 [6]; [11],113 ± 7 µM
"CCCCCCCCCCCCCC(=O)O [Myristic acid, myristic acid]",Kd,Candida maltosa CYP52A4,~120 µM
same,product formation in CYP5218 reconstitution assay,M. globosa CYP5218 [5],no observed product formation
same,Kd,M. globosa CYP5218 [6]; CYP5218 Kd (μM) Eadie-Hofstee,245 ± 29 µM
same,Kd,M. globosa CYP5218 [6]; [11],195 ± 41 µM
C=C(CC[C@@H](C)[C@H]1CC[C@@]2(C)C3=C(CC[C@]12C)[C@@]1(C)CC[C@H](O)[C@@H](C)[C@@H]1CC3)C(C)C [obtusifoliol],turnover number,M. globosa CYP51 [7],3.4 min⁻¹
same,Kd,M. globosa CYP51 [3],28 µM
CCCCCCCCCCCCCCCC [n-hexadecane],binding spectra with CYP5218,M. globosa CYP5218 [6],No binding spectra
CCCCC/C=C\C/C=C\CCCCCCCC(=O)O [linoleic acid],product formation in CYP5218 reconstitution assay,M. globosa CYP5218 [5],no observed product formation
same,Kd,M. globosa CYP5218 [6]; CYP5218 Kd (μM) Eadie-Hofstee,36 ± 6 µM
same,Kd,M. globosa CYP5218 [6]; [11],36 µM
"CCCCC/C=C\C/C=C\C/C=C\C/C=C\CCCC(=O)O [Arachidonic acid, arachidonic acid]",Kd,M. globosa CYP5218 [6]; CYP5218 Kd (μM) Eadie-Hofstee,256 ± 36 µM
same,Kd,M. globosa CYP5218 [6]; [11],264 ± 34 µM
"CCCCCCCC/C=C\CCCCCCCC(=O)O [Oleic acid, oleic acid]",product formation in CYP5218 reconstitution assay,M. globosa CYP5218 [5],no observed product formation
same,Kd,M. globosa CYP5218 [6]; CYP5218 Kd (μM) Eadie-Hofstee,90 ± 16 µM
same,Kd,M. globosa CYP5218 [6]; [11],93 ± 11 µM
"CCCCCCCCCCCCCCCCCCCC(=O)O [Arachidic acid, arachidic acid]",CYP5218 Kd (μM) Eadie-Hofstee,M. globosa CYP5218 [6],no binding
same,CYP5218 Kd (μM) Michaelis-Menten,M. globosa CYP5218 [6],no binding
same,binding spectra with CYP5218,M. globosa CYP5218 [6],No binding spectra
C=C(CC[C@@H](C)[C@H]1CC[C@@]2(C)C3=C(CC[C@]12C)[C@@]1(C)CC[C@H](O)C(C)(C)[C@@H]1CC3)C(C)C [eburicol],turnover number,M. globosa CYP51 [7],5.6 min⁻¹
same,binding spectra with CYP5218,M. globosa CYP5218 [6],failed to give reproducible binding spectra
same,Kd,M. globosa CYP51 [3],23 µM
CC(=O)N1CCN(c2ccc(OCC3COC(Cn4ccnc4)(c4ccc(Cl)cc4Cl)O3)cc2)CC1 (stereo not shown) [ketoconazole],"sterol fraction (%) 4,4-dimethylzymosterol",M. globosa [9],0%
same,sterol fraction (%) Eburicol,M. globosa [9],30.33%
same,sterol fraction (%) Episterol,M. globosa [9],0%
same,sterol fraction (%) Ergosta-7-enol,M. globosa [9],1.58%
same,"sterol fraction (%) Ergosta-8,22-dienol",M. globosa [9],1.89%
same,sterol fraction (%) Ergosta-8-enol,M. globosa [9],2.23%
same,sterol fraction (%) Ergosterol,M. globosa [9],51.50%
same,sterol fraction (%) Fecosterol,M. globosa [9],0.98%
same,sterol fraction (%) Obtusifoliol,M. globosa [9],0.18%
same,sterol fraction (%) Cholesterol,M. globosa [9]; cholesterol assimilated from growth media,1.92%
same,IC50,M. globosa CYP51 [10],0.176 ± 0.016 µM
same,MIC,M. globosa ATCC MYA-4612,0.25 µg/mL
same,Kd,M. globosa CYP51 [3],0.002 ± 0.001 µM
same,azole binding to CYP5218 (binding spectra),M. globosa CYP5218 [4],type II binding spectra
same,Kd,M. globosa CYP5218 [4],~1.6 µM
C[C@@H](c1ncncc1F)[C@](O)(Cn1cncn1)c1ccc(F)cc1F [voriconazole],MIC,M. globosa ATCC MYA-4612,1 µg/mL
same,Kd,M. globosa CYP51 [3],0.008 ± 0.005 µM
same,Kd,M. globosa CYP5218 [4],~107 µM
CCC(C)n1ncn(-c2ccc(N3CCN(c4ccc(OCC5COC(Cn6cncn6)(c6ccc(Cl)cc6Cl)O5)cc4)CC3)cc2)c1=O (stereo not shown) [itraconazole],IC50,M. globosa CYP51 [10],0.188 ± 0.008 µM
same,MIC,M. globosa ATCC MYA-4612,0.0625 µg/mL
same,Kd,M. globosa CYP51 [3],0.002 ± 0.001 µM
same,azole binding to CYP5218 (binding spectra),M. globosa CYP5218 [4],type II binding spectra
same,Kd,M. globosa CYP5218 [4],~0.4 µM and 0.407 µM
"CCCC/C=C\CCCCCCCC(=O)O [Myristoleic acid, myristoleic acid]",Kd,M. globosa CYP5218 [6]; CYP5218 Kd (μM) Eadie-Hofstee,151 ± 8 µM
same,Kd,M. globosa CYP5218 [6]; [11],158 ± 20 µM
C=CCCCCCCCCCCCCCC [1-hexadecene],binding spectra with CYP5218,M. globosa CYP5218 [6],No binding spectra
"CCCCCCCCCCCCCCCCCC(=O)O [Stearic acid, stearic acid]",CYP5218 Kd (μM) Eadie-Hofstee,M. globosa CYP5218 [6],no fit ^a
same,CYP5218 Kd (μM) Michaelis-Menten,M. globosa CYP5218 [6],no fit ^a
